Key:
[1] = tested on: normal lung tissue; test: γH2AX-positive cells in normal lung after thoracic irradiation; assay type: in vivo, mouse; conditions: 24 hours after 10 Gy; NU5455 30 mg/kg oral
Description: combined with 10 Gy thorax irradiation ( n = 6 - 7/group). For whole-thorax irradiation, anaesthetized mice were placed in the supine position in a customized rig. The whole thorax was exposed to X-ray radiation generated by the Gulmay Medical RS320 irradiation system (2.034 Gy/minute). The rest of the body was protected by lead shields. Three mice fr om each treatment group were humanely killed 24 h ours after irradiation, and their tumors processed to permit immunohistochemical analysis .
Tumor growth in the remaining mice was monitored by bioluminescent imaging on days 0, 4, 8 and 15 post-treatment. Mice were injected with luciferin (150 mg/kg i.p., Santa Cruz Biotechnology) and bioluminescence images were acquired using the IVIS Spectrum (PerkinElmer) at 5 minute intervals until maximum light was collected. […] Data were analyzed using LivingImage software (PerkinElmer). […]
Tissues were fixed in 4% paraformaldehyde (PFA) and paraffin -embedded. […] One tissue section from each of 3 mice per group was examined, and the whole section (excluding necrotic areas) analyzed using ImageScope analysis software (Aperio Technologies). γH2AX and 53BP1 foci were manually counted in 200 nuclei from each tumor sample. The percentage of γH2AX and 53BP1 positive nuclei in lung epithelial cells was quantified manually in normal lung samples across 5 randomly-chosen fields of view per […]

[2] = tested on: Huh7 cells; test: Huh7 cells with single doxorubicin-loaded DC M1 bead (SRB cell density, γH2AX Western); assay type: cell-based, Human
Description: Exponentially growing HAP-1 DNA-PK proficient or deficient cells were seeded into 6-well plates and allowed to re-attach. Cells were then incubated with vehicle (DMSO) or NU5455 (5 µM) 1 hour prior to irradiation and for a further 24 hours post-irradiation. Cells were then washed in PBS and incubated in drug-free medium to allow for colony formation.
To quantify the number of proliferating versus confluent cells, cells were pulsed with 5-ethynyl-2’-deoxyuridine (EdU), and labeled using the Click-iT Plus EdU Alexa Fluor 647 Flow Cytometry Assay Kit together with FxCycle Violet Stain to label DNA (both Thermo Fisher) following the manufacturer’s instructions. Samples of cells taken from tho se used in the clonogenic assay were used to confirm the percentage of cells in each cell cycle phase.
Samples were acquired on a Symphony A5 flow cytometer (Becton Dickinson, UK).
Cell cycle phase status was also confirmed by microscopy, using cells grown on coverslips i n 6-well plates. […] Coverslips were mounted using Prolong Glass with NucBlue (ThermoFisher) and images were acquired on the Leica TCS SP8 confocal fluorescence […]
Treated cells were fixed with 10% (w/v) trichloroacetic acid (Fisher) at 4°C overnight. Cells were stained with sulphorhodamine B (SRB, 0.4% (w/v) in water), and cell density quantified […]
by determining the absorbance at 570 nm of SRB stain dissolved in Tris base (10 mM, pH 10.5) using a spectrophotometer (BMG Labtech). […]
Blood samples were centrifuged at 6700 x g for 3 minutes, the plasma removed and stored at -20°C prior to analysis for drug by HPLC with fluorescence detection. […]
Samples (20 µl) were applied to a 10 x 0.46 cm Genesis C18 4 µm column (Grace Vydac) fitted with an in-line filter. […] Analytes were detected by fluorescence at 390 nm following excitation at 242 nm. Plasma concentrations were determined using linear standard curves (0.01 µM – 10 µM, R2 > 0.98) generated by extracting compounds from […]
Readings were taken every 2 hours for the first 10 hours and then at 24 hour intervals. […]

CN(C(=O)CN1CCOCC1)c1ccc2sc3c(-c4cccc5c(=O)cc(N6CC7CCC(C6)O7)oc45)cccc3c2c1 [NU5455]
number of γH2AX-positive cells in normal lung [1]: unaffected by NU5455 administration
inhibition of cell density, single agent ([2]; 96 hours continuous, NU5455 1 μM or a single doxorubicin-loaded bead): ~ 20%
reduction of cell density, combination treatment ([2]; 96 hours, NU5455 1 μM + single doxorubicin-loaded bead): 57.7% ± 2.1%
γH2AX protein levels (DNA damage induced by released doxorubicin) ([2]; NU5455 1 μM + doxorubicin-loaded bead, 24–96 hours, Western blotting): augment and sustain the DNA damage

— article PMC6934184, “Selective DNA-PKcs inhibition extends the therapeutic index of localized radiotherapy and chemotherapy” (The Journal of Clinical Investigation, 2019)
